In data set [1] the test system is pepsin (Fluka order no. 77161); 8 times USP pancreatin (Sigma order no. P7545). Briefly: simulated human gastro-intestinal tract (GIT procedure): pepsin with falling pH, then pancreatin up to pH 7.1. The note with it: 37.5° C., up to t=125 min.
Data set [2] concerns ACE (enzyme obtained from Sigma). Briefly: ACE in phosphate buffered saline (PBS) pH 7.4 with a chloride concentration of 260 mM. The note with it: 50° C., up to 60 minutes.
Data set [3] deals with ACE. Briefly: modified Matsui ACE inhibition assay. The class given is biochemical. Conditions: as stated in description text; read-out: IC50 value in the Modified Matsui test. As to the method: To determine the ACE inhibition activity of MAP and ITP, the chemically synthesised tripeptides were assayed according to the method of Matsui et al. (Matsui, T. et al. (1992) Biosci. Biotech. Biochem. 56: 517-518) with some minor modifications.
Each one of the four samples contained 75 μl 3 mM hippuryl histidine leucine (Hip-His-Leu, Sigma) dissolved in a 250 mM borate solution containing 200 mM NaCl, pH 8.3. ACE was obtained from Sigma. The mixtures were incubated at 37° C. and stopped after 30 min by adding 125 μl 0.5 M HCl. […] After incubation for 20 min. at 37° C., 4 ml 4 mM Na2SO3 in 0.2 M NaH2PO4 was added and the light absorbance at 416 nm was measured with UV/Vis spectrophotometer (Shimadzu UV-1601 with a CPS controller, Netherlands).
The amount of ACE inhibition (ACEI) activity was calculated as a percentage of inhibition compared with the conversion rate of ACE in the absence of an inhibitor according to the following formula: […]
Control 1=Absorbance without ACE inhibitory component (=max. ACE activity) [AU]. Control 2=Absorbance without ACE inhibitory component and without ACE (background) [AU]. Sample1=Absorbance in the presence of ACE and the ACE inhibitory component [AU]. Sample 2=Absorbance in the presence of the ACE inhibitory component, but without ACE [AU]. […]

For data set [4], the target named is ACE (Homo sapiens, UniProt P12821). The note with it: literature (Nakamura 1995; Aryoshi 1993); read-out: IC50 reported earlier as ACE inhibiting peptides; cited from earlier work.
ACE (Homo sapiens, UniProt P12821), sequence (P12821 30-1306, species assumed): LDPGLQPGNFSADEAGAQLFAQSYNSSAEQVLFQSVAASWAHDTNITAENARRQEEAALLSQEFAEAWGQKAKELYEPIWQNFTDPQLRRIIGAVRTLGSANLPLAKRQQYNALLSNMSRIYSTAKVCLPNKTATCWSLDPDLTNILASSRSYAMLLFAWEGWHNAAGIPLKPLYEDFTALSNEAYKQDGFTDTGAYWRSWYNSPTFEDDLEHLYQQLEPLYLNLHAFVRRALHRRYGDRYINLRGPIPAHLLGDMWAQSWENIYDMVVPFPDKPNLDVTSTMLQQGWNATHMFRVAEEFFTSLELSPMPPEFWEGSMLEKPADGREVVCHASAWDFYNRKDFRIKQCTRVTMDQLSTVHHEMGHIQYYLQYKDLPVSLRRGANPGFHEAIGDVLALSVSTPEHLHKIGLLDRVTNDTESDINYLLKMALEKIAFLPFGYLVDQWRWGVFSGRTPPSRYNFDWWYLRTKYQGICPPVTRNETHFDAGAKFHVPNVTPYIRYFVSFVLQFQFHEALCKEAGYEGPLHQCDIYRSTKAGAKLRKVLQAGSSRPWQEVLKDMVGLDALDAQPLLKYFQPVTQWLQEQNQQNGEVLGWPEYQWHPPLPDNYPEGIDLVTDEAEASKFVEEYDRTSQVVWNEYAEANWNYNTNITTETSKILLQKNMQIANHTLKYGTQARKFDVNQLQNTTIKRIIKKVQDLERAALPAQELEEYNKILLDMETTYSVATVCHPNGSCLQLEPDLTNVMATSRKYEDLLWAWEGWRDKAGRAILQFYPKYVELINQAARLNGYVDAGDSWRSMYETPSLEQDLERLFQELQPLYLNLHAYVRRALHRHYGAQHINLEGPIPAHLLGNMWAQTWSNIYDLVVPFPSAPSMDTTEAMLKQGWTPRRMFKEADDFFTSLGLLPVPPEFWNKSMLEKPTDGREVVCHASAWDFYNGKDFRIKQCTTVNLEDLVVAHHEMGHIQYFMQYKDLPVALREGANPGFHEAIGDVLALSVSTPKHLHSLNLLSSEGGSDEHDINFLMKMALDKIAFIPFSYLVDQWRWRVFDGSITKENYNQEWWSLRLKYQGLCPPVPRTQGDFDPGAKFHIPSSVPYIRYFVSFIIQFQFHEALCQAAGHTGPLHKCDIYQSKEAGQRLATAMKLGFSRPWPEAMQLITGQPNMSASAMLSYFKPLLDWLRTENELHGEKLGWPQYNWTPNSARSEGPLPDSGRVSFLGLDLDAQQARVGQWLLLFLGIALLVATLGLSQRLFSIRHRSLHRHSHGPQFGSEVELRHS
The test system of data set [5] is ACE. Briefly: at-line ACE inhibition assay. The class given is biochemical. The method, then: For the at-line ACE inhibition assay 27 μl of a 33.4 mU ml^−1 ACE (enzyme obtained from Sigma) in phosphate buffered saline (PBS) pH 7.4 with a chloride concentration of 260 mM was added and the mixture was allowed to incubate for 5 minutes on a 96 well plate mixer at 700 RPM. After the incubation period 13 μl of a 0.35 mM hippuric acid-histidine leucine (HHL) solution in PBS buffer was added and mixed for 1 minute at 700 RPM. The mixture was allowed to react for 60 minutes at 50° C. in a GC-oven. After the reaction the plate was cooled in melting ice.
The 96 well plate was then analysed on a flash-HPLC-column. Of the reaction mixture of each well 30 μl was injected on a Chromlith Flash RP18e 25×4.6 mm HPLC column (Merck, Darmstadt, Germany) equipped with a 10×4.6 mm RP18e guard column from the same supplier. The isocratic mobile phase consisted of a 0.1% solution of TFA in water/acetonitrile 79/21. […] Hippuric acid (H) and HHL were monitored at 280 nm. The peak heights of H and HHL were measured and the ACE inhibition (ACEI) of each fraction was calculated according to the equation: […]
• DCw Degree of Cleavage by ACE of HHL to H and HL in water • DCa Degree of Cleavage of HHL to H and HL for the analyte The Degree of Cleavage was calculated by expressing the peak height of H as a fraction of the sum of the peak heights of H and HHL.

The values below come from patent US20090131331A1 (DSM IP ASSETS B.V., priority 2005, published 2009).

A word on the IC50: it is the midpoint of a concentration-inhibition curve.

As to Met-Ala-Pro, in data set [1], the “amount per gram powder before and after GIT” value is recorded as 2851.4 μg g^−1 powder before, 3095.8 after GIT. Consider Hip-His-Leu, for which the cleaved bond result in data set [2] is “Hip-His”. With “IPP: known ACE inhibiting tripeptide, kappa-casein f 108-110; chemically synthesized internal reference”, the IC50 in the data set with ACE [3] is 2 µM; in the data set with ACE [4] it was 5 µM; with ACE [5] it was 7.1 µM. As to “LPP: known ACE inhibiting tripeptide, β-casein f151-153 (UniProt P02666 166-168, looked up, fragment)”, in the data set with ACE [4], the half-maximal inhibitory concentration (IC50) was 9.6 µM.
